The test system of this experiment is nasolabial and glabellar wrinkles. As to the kind of experiment: Assessment of clinical efficacy: topical facial treatment for 28 days, wrinkle evaluation with Bio3D Structured-light Scanner. Type of experiment: in vivo, human. The note with it: Day 28 vs Day 0, topical formulation containing peptide at 500 ppm, 10 volunteers per group. On the procedure: Two groups of 10 volunteers underwent 28 days of topical treatment with the peptides SEQ NO ID 1 (Pro-Trp-Lys-Trp) or SEQ NO ID 2 (Pal-Pro-Thr-Lys-Trp) in the facial region. Nasolabial and glabellar lines were evaluated on Day 0 (before) and Day 28 (after 4 weeks of treatment) using Bio3D Structured-light Scanner. For wrinkle evaluation, images of the different areas were taken and processed through specific software. Three parameters (total area, length and depth of wrinkles) were obtained for each of the areas in each of the volunteers.

Ends that are not written are not given here. * marks the point of attachment. Palmitoyl = CCCCCCCCCCCCCCCC(=O)*

As to Pro-Trp-Lys-Trp (PWKW) [SEQ NO ID 1], the “Decreased wrinkle intensity (D 28/D 0): Wrinkle area” value is on record as −10.92%, the “Decreased wrinkle intensity (D 28/D 0): Wrinkle depth” value is −9.23% and the “Decreased wrinkle intensity (D 28/D 0): Wrinkle length” value is on record as −14.97%.

Turning to “Pal-Pro-Thr-Lys-Trp (Palmitoyl-PTKW) [SEQ NO ID 2, N-palmitoylated peptide]”, the “Decreased wrinkle intensity (D 28/D 0): Wrinkle area” value is given as −7.81%, the “Decreased wrinkle intensity (D 28/D 0): Wrinkle depth” value is −6.59% and the “Decreased wrinkle intensity (D 28/D 0): Wrinkle length” value is given as −11.76%.

These data come from patent US20260157950A1, “Compounds and Cosmetic, Dermocosmetic, Cosmeceutical or Pharmaceutical Compositions for Relaxing Muscles, Including the Skeletal Muscles of the Face, for Anti-Aging Cosmetic Action, for Reducing and/or Smoothing Expression Lines and Wrinkles and/or for Antiperspirant Action, Uses and Methods” (Chemyunion Ltda, priority 2022, published 2026).
